From patent US8470771B2, “Method and medicament for inhibiting the infection of influenza virus” (priority 2007, dated 2013)
Marks after values point to notes of the source that are not given here.

How the values were obtained:
[1] = test system: QH-WSN virus (avian influenza virus H5N1); settings: for IC50: QH-WSN virus (avian influenza virus); for Inhibitory rates (%) of QH-WSN: QH-WSN virus (avian influenza virus, 200 μM)
[2] = test system: WSN virus (human influenza virus H1N1); settings: for IC50: WSN virus (human influenza virus); for Inhibitory rates (%) of WSN: WSN virus (human influenza virus, 100 μM)
[3] = test system: JX virus (human influenza virus H3N2); settings: for IC50: JX virus (human influenza virus); for Inhibitory rates (%) of JX: JX virus (human influenza virus, 200 μM)
[4] = test system: 3 subtypes of virus i.e. H5N1, H6N1 and H9N2; settings: read-out: 50% effect concentration (EC50); cited from earlier work
influenza virus = format: cell-based

Compound: CC[C@H](C)[C@H](NC(=O)[C@H](CCCCN)NC(=O)[C@H](CCC(N)=O)NC(=O)[C@@H](NC(=O)[C@H](CO)NC(=O)[C@H](CCC(=O)O)NC(=O)[C@@H](N)CCCCN)[C@@H](C)O)C(=O)N[C@H](C(=O)N[C@@H](CC(=O)O)C(=O)NCC(=O)N[C@H](C(=O)N[C@H](C(=O)N[C@@H](CC(N)=O)C(=O)N[C@@H](CCCCN)C(=O)N[C@H](C(=O)N[C@@H](CC(N)=O)C(=O)N[C@@H](CO)C(=O)N[C@H](C(=O)N[C@H](C(=O)N[C@@H](CC(=O)O)C(=O)N[C@@H](CCCCN)C(=O)O)[C@@H](C)CC)[C@@H](C)CC)C(C)C)[C@@H](C)O)C(C)C)[C@@H](C)CC [HR1-1]
- IC50 [1]: 32.7 ± 6.5 µM
- IC50 [2]: 29.3 ± 5.7 µM
- IC50 [3]: 38.2 ± 7.8 µM

Compound: CC[C@H](C)[C@H](NC(=O)[C@H](C)NC(=O)[C@H](CCCCN)NC(=O)[C@H](CCC(N)=O)NC(=O)[C@@H](NC(=O)[C@H](CO)NC(=O)[C@H](CCC(=O)O)NC(=O)[C@@H](N)CCCCN)[C@@H](C)O)C(=O)N[C@@H](CC(=O)O)C(=O)NCC(=O)N[C@H](C(=O)N[C@H](C(=O)N[C@@H](C)C(=O)N[C@@H](C)C(=O)N[C@@H](C)C(=O)N[C@@H](C)C(=O)N[C@@H](CC(N)=O)C(=O)N[C@@H](CCCCN)C(=O)N[C@H](C(=O)N[C@@H](CC(N)=O)C(=O)N[C@@H](CO)C(=O)N[C@H](C(=O)N[C@H](C(=O)N[C@@H](CC(=O)O)C(=O)N[C@@H](CCCCN)C(=O)O)[C@@H](C)CC)[C@@H](C)CC)C(C)C)[C@@H](C)O)C(C)C [HR1-2]
- IC50 [1]: 104 ± 28.6 µM
- IC50 [2]: 110 ± 28.2 µM
- IC50 [3]: 112 ± 19.5 µM

Compound: CC[C@H](C)[C@H](NC(=O)[C@H](CCCNC(=N)N)NC(=O)[C@@H](N)CCCNC(=N)N)C(=O)N[C@@H](CCC(=O)O)C(=O)N[C@@H](CC(N)=O)C(=O)N[C@@H](CC(C)C)C(=O)N[C@@H](CC(N)=O)C(=O)N[C@@H](CCCCN)C(=O)N[C@@H](CCCCN)C(=O)N[C@@H](CCSC)C(=O)N[C@@H](CCC(=O)O)C(=O)N[C@@H](CC(=O)O)C(=O)NCC(=O)N[C@@H](Cc1ccccc1)C(=O)N[C@@H](CC(C)C)C(=O)N[C@@H](CC(=O)O)C(=O)N[C@H](C(=O)N[C@@H](Cc1c[nH]c2ccccc12)C(=O)N[C@H](C(=O)N[C@@H](Cc1ccc(O)cc1)C(=O)O)[C@@H](C)O)C(C)C [HR2A]
- Inhibitory rates (%) of QH-WSN [1]: 56.9* %
- Inhibitory rates (%) of WSN [2]: 42.0** %
- Inhibitory rates (%) of JX [3]: 51.4* %

Compound: CSCC[C@H](NC(=O)[C@H](CC(C)C)NC(=O)[C@@H](NC(=O)[C@H](CC(C)C)NC(=O)[C@H](CC(C)C)NC(=O)[C@H](CCC(=O)O)NC(=O)[C@H](C)NC(=O)[C@@H](N)CC(N)=O)C(C)C)C(=O)N[C@@H](CCC(=O)O)C(=O)N[C@@H](CC(N)=O)C(=O)N[C@@H](CCC(=O)O)C(=O)N[C@@H](CCCNC(=N)N)C(=O)N[C@H](C(=O)N[C@@H](CC(C)C)C(=O)N[C@@H](CC(=O)O)C(=O)N[C@@H](Cc1ccccc1)C(=O)N[C@@H](Cc1c[nH]cn1)C(=O)N[C@@H](CC(=O)O)C(=O)N[C@@H](CO)C(=O)N[C@@H](CC(N)=O)C(=O)N[C@H](C(=O)N[C@@H](CCCCN)C(=O)N[C@@H](CC(N)=O)C(=O)O)C(C)C)[C@@H](C)O [HR2B]
- Inhibitory rates (%) of QH-WSN [1]: 63.8* %
- Inhibitory rates (%) of WSN [2]: 43.0** %
- Inhibitory rates (%) of JX [3]: 15.2* %

Compound: CC(C)C[C@H](NC(=O)[C@H](CCCNC(=N)N)NC(=O)[C@@H](NC(=O)[C@H](CCCCN)NC(=O)[C@H](CC(=O)O)NC(=O)[C@H](Cc1ccc(O)cc1)NC(=O)[C@H](CC(C)C)NC(=O)[C@H](CC(N)=O)NC(=O)[C@H](CCCCN)NC(=O)[C@@H](NC(=O)[C@H](CC(N)=O)NC(=O)[C@H](CO)NC(=O)[C@H](CC(=O)O)NC(=O)[C@H](Cc1c[nH]cn1)NC(=O)[C@@H](N)Cc1ccccc1)C(C)C)C(C)C)C(=O)N[C@@H](CCC(N)=O)C(=O)O [HR2C]
- Inhibitory rates (%) of QH-WSN [1]: 53.1* %
- Inhibitory rates (%) of WSN [2]: 29.6** %
- Inhibitory rates (%) of JX [3]: 17.1* %

Compound: CC(=O)N[C@H]1[C@H]([C@H](O)[C@H](O)CO)OC(C(=O)O)=C[C@@H]1N=C(N)N [Zanamivir]
- EC50 [4]: 8.5 to 14 µM

Compound: KLPDDFMGCV
- inhibition of the infection of influenza virus (influenza virus): did not inhibit the infection of influenza virus
